In PubChem BioAssay AID330 (DTP/NCI, 2004):
Several values for one entry are separate records, joined by “and”; a condition that tells them apart may be missing. Equal entries are not always repeated. Toxic doses and inconclusive results are not listed. Rule for the calls: active = survival T/C of 150% or more; inactive = T/C below 125% in these data.

Test system: P388 leukemia ip, CD2F1 mice, survival T/C
Test: NCI In Vivo Anticancer Drug Screen. Data for tumor model P388 Leukemia (intraperitoneal) in CD2F1 (CDF1) mice
Conditions: endpoint: median survival time, higher = longer survival
Summary of the method: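 Mice carrying the transplanted tumor received test compound or vehicle. Survival was recorded in each group, and the value is the treated-group measurement divided by that of the vehicle-treated control group.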

[1] = dose: 50.0 mg/kg/injection, schedule: Q01DX009 (ip), vehicle: Klucel (hydroxypropylcellulose) (HPC)
[2] = dose: 100.0 mg/kg/injection, schedule: Q01DX009 (ip), vehicle: Klucel (hydroxypropylcellulose) (HPC)
[3] = dose: 200.0 mg/kg/injection, schedule: Q01DX009 (ip), vehicle: Klucel (hydroxypropylcellulose) (HPC)
[4] = dose: 25.0 mg/kg/injection, schedule: Q01DX005 (ip), vehicle: Klucel (hydroxypropylcellulose) (HPC)
[5] = dose: 50.0 mg/kg/injection, schedule: Q01DX009 (ip), vehicle: saline with Tween-80
[6] = dose: 100.0 mg/kg/injection, schedule: Q01DX009 (ip), vehicle: saline with Tween-80
[7] = dose: 200.0 mg/kg/injection, schedule: Q01DX009 (ip), vehicle: saline with Tween-80
[8] = dose: 60.0 mg/kg/injection, schedule: Q01DX005 (ip), vehicle: saline with Tween-80
[9] = dose: 120.0 mg/kg/injection, schedule: Q01DX005 (ip), vehicle: saline with Tween-80
[10] = dose: 50.0 mg/kg/injection, schedule: Q01DX005 (ip), vehicle: Klucel (hydroxypropylcellulose) (HPC)
[11] = dose: 100.0 mg/kg/injection, schedule: Q01DX005 (ip), vehicle: Klucel (hydroxypropylcellulose) (HPC)
[12] = dose: 200.0 mg/kg/injection, schedule: Q01DX005 (ip), vehicle: Klucel (hydroxypropylcellulose) (HPC)
[13] = dose: 50.0 mg/kg/injection, schedule: Q01DX005 (ip), vehicle: saline with Tween-80
[14] = dose: 100.0 mg/kg/injection, schedule: Q01DX005 (ip), vehicle: saline with Tween-80
[15] = dose: 200.0 mg/kg/injection, schedule: Q01DX005 (ip), vehicle: saline with Tween-80
[16] = dose: 50.0 mg/kg/injection, schedule: Q01DX009 (ip), vehicle: saline
[17] = dose: 100.0 mg/kg/injection, schedule: Q04DX002 (ip), vehicle: saline with Tween-80
[18] = dose: 200.0 mg/kg/injection, schedule: Q04DX002 (ip), vehicle: saline with Tween-80
[19] = dose: 100.0 mg/kg/injection, schedule: Q01DX009 (ip), vehicle: saline
[20] = dose: 200.0 mg/kg/injection, schedule: Q01DX009 (ip), vehicle: saline
[21] = dose: 12.5 mg/kg/injection, schedule: Q04DX002 (ip), vehicle: saline with Tween-80
[22] = dose: 25.0 mg/kg/injection, schedule: Q04DX002 (ip), vehicle: saline with Tween-80
[23] = dose: 50.0 mg/kg/injection, schedule: Q04DX002 (ip), vehicle: saline with Tween-80

Measured: T/C

Cc1ccc(N2OC3(CCCCC3)n3c(=O)c4ccccc4c(=O)n3C2c2ccccc2)cc1 (stereo not given)
inactive: [1] 105 % of control | [2] 106 % of control | [3] 99 % of control

C=C1C(=O)OC2/C=C(\C=O)C3OC3C3OC3(C)CC(OC(=O)/C(=C/C)CO)C12 (stereo not given)
inactive: dose: 3.12 mg/kg/injection, schedule: Q01DX005 (ip), vehicle: Klucel (hydroxypropylcellulose) (HPC) 100 % of control | dose: 6.25 mg/kg/injection, schedule: Q01DX005 (ip), vehicle: Klucel (hydroxypropylcellulose) (HPC) 110 % of control | dose: 12.5 mg/kg/injection, schedule: Q01DX005 (ip), vehicle: Klucel (hydroxypropylcellulose) (HPC) 110 % of control | [4] 101 % of control

CCOC(=O)C1=C(C)NC(C)=C(C(=O)OCC)C1c1ccc(Cl)cc1
inactive: [5] 88 % of control | [6] 94 % of control | [7] 95 % of control | dose: 400.0 mg/kg/injection, schedule: Q01DX009 (ip), vehicle: saline with Tween-80 93 % of control

COc1cc2c(cc1OC)/C(=N/N)CCC2
inactive: dose: 3.13 mg/kg/injection, schedule: Q01DX009 (ip), vehicle: water 100 % of control | dose: 6.25 mg/kg/injection, schedule: Q01DX009 (ip), vehicle: water 100 % of control | dose: 12.5 mg/kg/injection, schedule: Q01DX009 (ip), vehicle: water 95 % of control | dose: 25.0 mg/kg/injection, schedule: Q01DX009 (ip), vehicle: water 91 % of control | dose: 50.0 mg/kg/injection, schedule: Q01DX009 (ip), vehicle: water 91 % of control

O=C(/C=N/O)Nc1cccnc1
inactive: [1] 109 % of control | [2] 109 % of control | [3] 109 % of control

CN(C)c1ccc(/C=N/NC(=O)c2ccccc2N)c(Cl)c1
inactive: [8] 96 % of control | [9] 89 % of control

CCCCCCCCCCCCCCCCN1CCC2SC3CN(CCCCCCCCCCCCCCCC)CCC3SC2C1 (stereo not given)
inactive: [5] 99 % of control | [6] 96 % of control | [7] 97 % of control

COc1ccc2cc3c(nc2c1N)C(=O)C(N1CC1)=C(N1CC1)C3=O
inactive: [4] 98 % of control | [10] 99 % of control | [11] 100 % of control | [12] 100 % of control

COc1ccc(N=C(Cl)c2ccc(Br)cc2)cc1
inactive: [13] 97 % of control | [14] 96 % of control | [15] 96 % of control

COC1C2OC(C)(C)OC2OC1C(C)N(C)O (stereo not given)
inactive: dose: 100.0 mg/kg/injection, schedule: Q01DX001 (ip), vehicle: Klucel (hydroxypropylcellulose) (HPC) 103 % of control | dose: 100.0 mg/kg/injection, schedule: Q01DX001 (ip), vehicle: saline 116 % of control | dose: 200.0 mg/kg/injection, schedule: Q01DX001 (ip), vehicle: Klucel (hydroxypropylcellulose) (HPC) 106 % of control | dose: 200.0 mg/kg/injection, schedule: Q01DX001 (ip), vehicle: saline 104 % of control | dose: 400.0 mg/kg/injection, schedule: Q01DX001 (ip), vehicle: Klucel (hydroxypropylcellulose) (HPC) 103 % of control | dose: 400.0 mg/kg/injection, schedule: Q01DX001 (ip), vehicle: saline 99 % of control

CCCC1CN2CCc3cc(OC)c(OC)cc3C2C/C1=C/C(=O)OCC (stereo not given)
inactive: dose: 12.5 mg/kg/injection, schedule: Q01DX009 (ip), vehicle: saline 90 % of control | dose: 25.0 mg/kg/injection, schedule: Q01DX009 (ip), vehicle: saline 92 % of control | [5] 90 % of control | [16] 96 % of control | [7] 89 % of control

COc1ccc(-c2cn(-c3ccccc3)c3ncnc(N)c23)cc1
inactive: [8] 102 % of control | [9] 103 % of control | dose: 240.0 mg/kg/injection, schedule: Q01DX005 (ip), vehicle: saline with Tween-80 103 % of control

Cc1ccc(S(=O)(=O)N(Cl)Cl)cc1
inactive: dose: 6.25 mg/kg/injection, schedule: Q01DX009 (ip), vehicle: Klucel (hydroxypropylcellulose) (HPC) 111 % of control | dose: 12.5 mg/kg/injection, schedule: Q01DX009 (ip), vehicle: Klucel (hydroxypropylcellulose) (HPC) 99 % of control | dose: 25.0 mg/kg/injection, schedule: Q01DX009 (ip), vehicle: Klucel (hydroxypropylcellulose) (HPC) 108 % of control

O=c1cc(CC(O)c2ccccc2)c2ccccc2[nH]1 (stereo not given)
inactive: [17] 95 % of control | [18] 94 % of control | dose: 400.0 mg/kg/injection, schedule: Q04DX002 (ip), vehicle: saline with Tween-80 91 % of control

CC1CC(C)(C)OB(OCCc2ccc(Cl)cc2Cl)O1 (stereo not given)
inactive: [16] 99 % of control | [19] 102 % of control | [20] 100 % of control

CN(C)c1ccc(C(O)Cc2ccc3ccccc3n2)cc1 (stereo not given)
inactive: [1] 113 % of control | [2] 92 % of control | [3] 92 % of control

CCc1ccc2c(c1)C(O)(c1ccccc1)c1c(c(-c3ccccc3)c3ccccc3c1-c1ccccc1)C2(O)c1ccccc1 (stereo not given)
inactive: [13] 92 % of control | [14] 89 % of control | [15] 89 % of control

CC(NS(=O)(=O)c1ccccc1)c1ccccc1 (stereo not given)
inactive: dose: 100.0 mg/kg/injection, schedule: Q04DX003 (ip), vehicle: Klucel (hydroxypropylcellulose) (HPC) 100 % of control | dose: 200.0 mg/kg/injection, schedule: Q04DX003 (ip), vehicle: Klucel (hydroxypropylcellulose) (HPC) 106 % of control | dose: 400.0 mg/kg/injection, schedule: Q04DX003 (ip), vehicle: Klucel (hydroxypropylcellulose) (HPC) 113 % of control

CC1C(O)C2(Oc3cc4c(c5c3[C@@H](CC5O)[C@H]2C)CCC2Cc3nc5c(nc3C[C@@]42C)CC2CCC3C4=C[C@H]6O[C@@]7(O[C@@](C)(CO)C[C@@H]7O)C(C)[C@@]6(O)[C@]4(C)[C@@H](O)CC3[C@]2(C)C5)OC1(C)C (stereo not given in full)
inactive: dose: 12.5 micrograms/kg/injection, schedule: Q01DX009 (ip), vehicle: saline + alcohol 107 % of control | dose: 25.0 micrograms/kg/injection, schedule: Q01DX009 (ip), vehicle: saline + alcohol 100 % of control | dose: 50.0 micrograms/kg/injection, schedule: Q01DX009 (ip), vehicle: saline + alcohol 107 % of control | dose: 100.0 micrograms/kg/injection, schedule: Q01DX009 (ip), vehicle: saline + alcohol 109 % of control

O=S(=O)(c1cnccc1N1CCN(CCO)CC1)N1CCCC1
inactive: [16] 106 % of control | [19] 101 % of control | [20] 87 % of control

O=C1CC2C1C1C=CC2n2c(=O)n(-c3ccccc3)c(=O)n21 (stereo not given)
inactive: [21] 98 % of control | [22] 99 % of control | [23] 101 % of control

COC(=O)C1(OC(=O)CCC(=O)O)C(=O)NC2=C1C(=O)c1ccccc1C2=O (stereo not given)
inactive: [13] 109 % of control and 119 % of control | [15] 111 % of control and 113 % of control

CC(C)[Si]1(C(C)C)N([Si](C)(C)F)[Si](C(C)C)(C(C)C)N1[Si](C)(C)F
inactive: dose: 60.0 mg/kg/injection, schedule: Q01DX005 (ip), vehicle: saline 97 % of control | dose: 120.0 mg/kg/injection, schedule: Q01DX005 (ip), vehicle: saline 87 % of control | dose: 240.0 mg/kg/injection, schedule: Q01DX005 (ip), vehicle: saline 100 % of control

FC(F)(F)COP1OCCS1 (stereo not given)
inactive: [21] 99 % of control | [22] 99 % of control | [23] 98 % of control | [17] 100 % of control | [18] 104 % of control

CCOC(=O)NC(CC(NC(=O)OCC)NC(=O)OCC)NC(=O)OCC
inactive: [13] 108 % of control | [14] 107 % of control | [15] 110 % of control

O=C(O)CCCC(O)(O)C(=O)O
inactive: [10] 108 % of control | [11] 94 % of control | [12] 96 % of control

CCC(C)C(N)C(=O)O (stereo not given)
inactive: [1] 109 % of control | [2] 94 % of control | [3] 105 % of control

O=S1(=O)C=C(c2ccc3ccccc3c2)C1
inactive: dose: 100.0 mg/kg/injection, schedule: Q01DX001 (ip), vehicle: saline with Tween-80 105 % of control | dose: 200.0 mg/kg/injection, schedule: Q01DX001 (ip), vehicle: saline with Tween-80 100 % of control | dose: 400.0 mg/kg/injection, schedule: Q01DX001 (ip), vehicle: saline with Tween-80 96 % of control
